Tests used:
Format in all cases: cell-based, mouse
MEFs = assay: CiPSC induction by small-molecule combinations, primary CiPSC colonies counted; details: for replacement of DZNep in CiPSC generation: in combination with VC6TF
Procedure: The initial cells (MEFs, MNFs, MAFs or ADSCs) were seeded at a density of 50,000 cells per well of a 6-well plate or 300,000 cells per 100 mm dish. On the next day (day 0), the original medium was replaced with chemical reprogramming medium containing the small-molecule combinations. The small-molecule combinations-containing medium was changed every 4 days. On day 12, these cells were washed in PBS and digested with 0.25% Trypsin-EDTA (Invitrogen) at 37° C. for 3-5 min. After neutralization, the cell clumps were dissociated into single cells by thorough pipetting. The cells were harvested (300,000-1,000,000 cells per well of a 6-well plate) and replated at a density of 300,000-500,000 cells per well of a 6-well plate in the chemical reprogramming medium containing the small-molecule combinations. DZNep was added to the cell cultures on day 16 or day 20. On day 28-36, the small-molecule combinations including DZNep were removed. Meanwhile, the chemical reprogramming medium was replaced with 2i-medium. After another 8-12 days, 2i-competent, ESC-like and GFP-positive colonies were counted as primary CiPSC colonies. For CiPSC induction from wild-type cells without OG reporter, 2i-competent and ESC-like colonies were counted as primary CiPSC colonies. These CiPSC colonies were picked up for expansion and characterization. Alternatively, CiPSCs could be induced without replating on day 12.

MEFs from OG mice [1] = assay: Screen for chemical substitutes of Oct4 in OG-MEFs infected with Sox2, Klf4 and c-Myc; details: OG-MEFs with viral expression of Sox2, Klf4 and c-Myc
Procedure: To identify chemical substitutes of Oct4, MEFs from OG mice were plated at a density of 20,000 cells per well of a 12-well plate and infected with lentiviruses encoding Sox2, Klf4 and c-Myc. After infection, the medium was replaced with LIF-free ESC culture medium. Individual chemicals from small-molecule libraries were added to each well. The medium and chemicals were changed every 4 days. Chemical treatments were continued for 14-20 days or until GFP-positive colonies appeared. Primary hits were selected for further confirmation and optimization.
Small molecules that enable reprogramming in the absence of Oct4 were searched using Oct4 promoter-driven green fluorescent protein (GFP) expression (OG) mouse embryonic fibroblasts (MEFs), with viral expression of Sox2, Klf4, and c-Myc.

MEFs from OG mice [2] = assay: Screen for small molecules that facilitate late reprogramming (DOX-inducible Oct4 plus VC6T)
Procedure: To identify small molecules that facilitate late reprogramming, a doxycycline (DOX)-inducible Oct4 expression screening system was used (Li, et al., Cell Res. 21:196-204 (2011)).
MEFs from OG mice were plated as described above and infected with Fu-tet-hOct4 and FUdeltaGW-rtTA lentiviruses. The induction protocol was carried out as described above.
After infection, the culture medium was replaced with LIF-free ESC culture medium containing VC6T (VPA, CHIR99021, 616452, Tranylcypromine) plus DOX (1 μg/ml). Alternatively, MEFs harboring DOX-inducible Oct4 from Tet-On POU5F1 mouse strain B6; 129-Gt(ROSA)26Sor^tm1(rTA*M2)Jae COl1a1^tm2(tetO-Pou5f1)Jae/J were used in this screen (Li, et al., Cell Res., 21:196-204 (2011)). These two DOX-inducible systems were only used in this screen, but not in complete chemical reprogramming. Individual chemicals from small-molecule libraries were added to each well. Small molecules were added at different culture time points. 5-aza-C (5-Azacytidine) and DZNep were added from day 8. The medium and chemicals were changed every 4 days; DOX was added only for the first 4-8 days. Chemical treatments were continued for 16-24 days or until GFP-positive colonies appeared. Primary hits were selected for further confirmation and optimization. CiPSC colonies were counted on day 44. […]

[3] = test system: pluripotency-related genes; assay: Gene expression during chemical reprogramming (real-time PCR, RNA-seq); details: for activation of endogenous expression of Sall4 and Sox2: withdrawal from VC6TF, after 12 days
cAMP level in MEF = assay: Intracellular cAMP quantification (Direct cAMP ELISA); details: FSK 10 μM, versus DMSO control
Procedure: (§1) cAMP was quantified using the Direct cAMP ELISA Kit (Enzo) according to the manufacturer's protocol. For SAM and SAH quantification, cultured cells (1,000,000 cells) were trypsinized and homogenized by ultrasonication in 200 μl PBS. Then 40 μl of 400 mg/ml TCA was added. Cell extracts were incubated on ice for 30 min. After centrifugation at 4° C. (13,000 rpm, 15 min), the supernatants were filtered through a 0.22 μm filter and analyzed by high-performance liquid chromatography (HPLC, Shimadzu) with HILIC columns (Waters).
The effect of inhibiting adenylate cyclase on the number of colonies generated by VC6TFZ was tested. […] The effect of replacing FSK with the cAMP analog (DBcAMP), alone or in combination with phosphodiesterase inhibitors, IBMX, or the phosphodiesterase inhibitor, rolipram and IBMX, on cell reprogramming was also tested. Both DBcAMP and IBMX were used at 50 μM in the combination treatment.

Oct4 promoter [4] = assay: DNA methylation at the Oct4 promoter during chemical reprogramming
Text: Genomic DNA was modified by bisulfite treatment and purified using the MethylCode™ Bisulfite Conversion Kit (Invitrogen) according to the manufacturer's protocol. The amplified fragments were cloned into the pEASY-blunt Vector (Transgene). Ten randomly picked clones from each sample were sequenced.
(§2) The function of DZNep in inducing CiPSCs could not be replaced by down-regulating Ezh2 expression (FIGS. 14C-E). GFP+/ES-like colonies in the primary culture, unlike other colonies, express high mRNA level of Nanog and low level of Gata6, resembling ESCs and the established CiPSCs (data not shown). As master pluripotency genes, Oct4 and Sox2 may thereby activate other pluripotency-related genes and fulfill the chemical reprogramming process, along with the activation of Nanog and the silencing of Gata6, in the presence of 2i (Silva, et al., PLoS Biol. 6:e253 (2008), Theunissen, et al., Curr. Biol., 21:65-71 (2011). Boyer, et al., Cell, 122:947-956(2005); Chazaud, at al., Dev. Cell, 10:615-624 (2006)).

[5] = test system: concentration ratio of SAH to SAM; assay: SAH and SAM quantification by HPLC
Procedure: as §1
Next, the role of DZNep, which was added in the late phase of chemical reprogramming was investigated. […] As an SAH hydrolase inhibitor, DZNep elevates the concentration ratio of SAH to S-adenosylmethionine (SAM) and may thereby repress the SAM-dependent cellular methylation process (FIG. 14A).

Oct4 promoter [6] = assay: Chromatin immunoprecipitation, H3K9 methylation at the Oct4 promoter
Procedure: ChIP was performed using the EZ-Magna ChIP A/G Kit (Millipore) according to the manufacturer's protocol. Anti-H3K27me3 (Abcam, ab6002), anti-H3K9me2 (Millipore, 07-441), anti-H3K4me3 (Abcam, ab8580) and anti-H3K9ac (Abcam, ab4441) antibodies were used. Following immunoprecipitation, DNA was analyzed by real-time PCR.
as §2

## Nc1ncnc2c1ncn2[C@@H]1C=C(CO)[C@@H](O)[C@H]1O [NEPA, (−)Neplanocin A]
MEFs
  replacement of DZNep in CiPSC generation: useful in replacing DZNep in reprogramming

## C=C[C@@]1(C)CC(=O)[C@]2(O)[C@@]3(C)[C@@H](O)CCC(C)(C)[C@@H]3[C@H](O)[C@H](OC(C)=O)[C@@]2(C)O1 [Forskolin]
MEFs from OG mice [1]
  reprogramming in the absence of Oct4 (chemical substitute for Oct4): identified as chemical “substitutes” for Oct4
MEFs from OG mice [2]
  hit facilitating late reprogramming: identified in this screen
[3]
  activation of endogenous expression of Sall4 and Sox2: essential in activating
cAMP level in MEF
  cAMP level: significantly elevates

## CCCC(=O)[O-].[Na+] [sodium butyrate, Sodiumbutyane]
MEFs from OG mice [2]
  hit facilitating late reprogramming: identified in this screen

## CCCCC[C@H](O)/C=C/[C@H]1[C@H](O)CC(=O)[C@@H]1C/C=C\CCCC(=O)O [Prostaglandin E2]
MEFs from OG mice [2]
  hit facilitating late reprogramming: identified in this screen

## bFGF: recombinant basic fibroblast growth factor
MEFs; FIG. 5G
  requirement in inducing CiPSCs: necessary in inducing CiPSCs

## Nc1nccc2c1ncn2C1OC(CO)C(O)C1O (centres unmarked) [DZA, 3-Deamadenoxine]
MEFs
  replacement of DZNep in CiPSC generation: useful in replacing DZNep in reprogramming

## Cc1[nH]c2ccc(O)cc2c1CCN [2-Me-5HT, 2-Methyl-5-hydroxytryptamine hydrocholoride]
MEFs from OG mice [1]
  reprogramming in the absence of Oct4 (chemical substitute for Oct4): identified as chemical “substitutes” for Oct4

## Cc1cccc(-c2n[nH]cc2-c2ccc3ncccc3n2)n1 [compound 616452, 2-(3-(6-Methylpyridin-2-yl)-1H-pyrazol-4-yl)-1,5-naphthyridine]
[3]
  activation of endogenous expression of Sall4 and Sox2: essential in activating

## Nc1nccc2c1ncn2[C@@H]1C=C(CO)[C@@H](O)[C@H]1O [DZNep, 3-deazaneplanocin A]
Oct4 promoter [4]
  DNA methylation at the Oct4 promoter: significantly decreased
MEFs from OG mice [2]
  hit facilitating late reprogramming: identified in this screen
[5]
  concentration ratio of SAH to S-adenosylmethionine (SAM): elevates
[3]; after addition of DZNep in chemical reprogramming
  Oct4 expression: enhanced significantly
Oct4 promoter [6]
  H3K9 methylation at the Oct4 promoter: significantly decreased

## Cc1cnc(-c2cnc(NCCNc3ccc(C#N)cn3)nc2-c2ccc(Cl)cc2Cl)[nH]1 [CHIR99021, 6-[[2-[[4-(2,4-Dichlorophenyl)-5-(5-methyl-1H-imidazol-2-yl)-2-pyrimidinyl]amino]ethyl]amino]-3-pyridinecarbonitrile]
[3]
  activation of endogenous expression of Sall4 and Sox2: essential in activating

## Nc1ncn([C@@H]2O[C@H](CO)[C@@H](O)[C@H]2O)c(=O)n1 [5-Azacytidine]
MEFs from OG mice [2]
  hit facilitating late reprogramming: identified in this screen

## Nc1ncnc2c1ncn2C(C=O)OC(C=O)CO (centres unmarked) [ADOX, Adenosine periodate oxidized]
MEFs
  replacement of DZNep in CiPSC generation: useful in replacing DZNep in reprogramming

## COc1ccc(C2CNC(=O)C2)cc1OC1CCCC1 (centres unmarked) [Rolipram]
MEFs from OG mice [2]
  hit facilitating late reprogramming: identified in this screen

## C/C(=C\c1ccc(C(=O)O)cc1)c1ccc2c(c1)C(C)(C)CCC2(C)C [TTNPB, 4-[(E)-2-(5,6,7,8-Tetrahydro-5,5,8,8-tetramethyl-2-naphthalenyl)-1-propenyl]benzoic acid]
MEFs; booster added to chemical reprogramming in MEFs
  enhancement of chemical reprogramming efficiency, factor: ≤ 40
MEFs; with booster TTNPB
  chemical reprogramming frequency: up to 0.2%

## NC(=O)c1ccc(-c2nc(-c3ccc4c(c3)OCCO4)c(-c3ccccn3)[nH]2)cc1 [D4476]
MEFs from OG mice [1]
  reprogramming in the absence of Oct4 (chemical substitute for Oct4): identified as chemical “substitutes” for Oct4

From patent US9982237B2, “Compositions and methods for reprograming non-pluripotent cells into pluripotent stem cells” (Hong Guan Ltd., priority 2013, dated 2018)
